Laboratory results reported in PubChem BioAssay AID248 (DTP/NCI, 2004).
Where “and” joins values, the source holds several entries; their conditions need not be identical. Equal values may be shown once. Toxic doses and inconclusive results are not listed.

System: L1210 leukemia ip in BDF1 mice, survival T/C
Assay: NCI In Vivo Anticancer Drug Screen. Data for tumor model L1210 Leukemia (intraperitoneal) in B6D2F1 (BDF1) mice
Settings: higher = longer survival
In short: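 Transplanted-tumor mice were given test agent; controls received vehicle only. Survival readings from the two groups were divided (treated over control).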

[1] = endpoint: mean survival time, dose: 100.0 mg/kg/injection, schedule: Q04DX002 (ip), vehicle: saline with Tween-80
[2] = endpoint: mean survival time, dose: 200.0 mg/kg/injection, schedule: Q04DX002 (ip), vehicle: saline with Tween-80
[3] = endpoint: mean survival time, dose: 400.0 mg/kg/injection, schedule: Q04DX002 (ip), vehicle: saline with Tween-80
[4] = endpoint: mean survival time, dose: 100.0 mg/kg/injection, schedule: Q01DX009 (ip), vehicle: saline with Tween-80
[5] = endpoint: mean survival time, dose: 200.0 mg/kg/injection, schedule: Q01DX009 (ip), vehicle: saline with Tween-80
[6] = endpoint: mean survival time, dose: 200.0 mg/kg/injection, schedule: Q04DX003 (ip), vehicle: saline with Tween-80
[7] = endpoint: mean survival time, dose: 400.0 mg/kg/injection, schedule: Q04DX003 (ip), vehicle: saline with Tween-80
[8] = endpoint: mean survival time, dose: 75.0 mg/kg/injection, schedule: Q01DX001 (ip), vehicle: saline
[9] = endpoint: mean survival time, dose: 100.0 mg/kg/injection, schedule: Q04DX002 (ip), vehicle: saline
[10] = endpoint: mean survival time, dose: 200.0 mg/kg/injection, schedule: Q04DX002 (ip), vehicle: saline
[11] = endpoint: mean survival time, dose: 400.0 mg/kg/injection, schedule: Q04DX002 (ip), vehicle: saline
[12] = endpoint: mean survival time, dose: 100.0 mg/kg/injection, schedule: Q04DX003 (ip), vehicle: Klucel (hydroxypropylcellulose) (HPC)
[13] = endpoint: mean survival time, dose: 200.0 mg/kg/injection, schedule: Q04DX003 (ip), vehicle: Klucel (hydroxypropylcellulose) (HPC)
[14] = endpoint: mean survival time, dose: 50.0 mg/kg/injection, schedule: Q01DX009 (ip), vehicle: saline with Tween-80

OC/C=[CH]\[Sn]([c]1ccccc1)([c]1ccccc1)[c]1ccccc1
T/C [1]: 95 % of control
T/C [2]: 119 % of control
T/C [3]: 119 % of control

O=C(O)C(O)(c1ccccc1)C1CCCCC1 (centres undefined)
T/C [1]: 91 % of control
T/C [2]: 105 % of control
T/C [3]: 98 % of control

CCOC(=O)CN1C(=O)CN=C(c2ccccn2)c2cc(Cl)ccc21
T/C [4]: 91 % of control
T/C [5]: 93 % of control

C=C1C(=O)O[C@H]2C=C(C)[C@H]3[C@@H](OC(C)=O)C[C@@](C)(O)[C@@H]3C[C@H]12
T/C (endpoint: mean survival time, dose: 50.0 mg/kg/injection, schedule: Q01DX Z (ip), vehicle: carboxymethylcellulose (CMC)): 94 % of control

Cc1cccc(/C=N\OCc2ccccc2)n1
T/C (endpoint: mean survival time, dose: 100.0 mg/kg/injection, schedule: Q04DX003 (ip), vehicle: saline with Tween-80): 98 % of control
T/C [6]: 98 % of control
T/C [7]: 98 % of control

CCCC(CCC)NCCOC(=O)C(CC)c1ccccc1 (centres undefined)
T/C [8]: 94 % of control

O=Cc1ccc(OC(=O)Nc2ccccc2F)cc1
T/C (endpoint: mean survival time, dose: 100.0 mg/kg/injection, schedule: Q01DX001 (ip), vehicle: saline): 96 % of control
T/C (endpoint: mean survival time, dose: 100.0 mg/kg/injection, schedule: Q01DX009 (ip), vehicle: saline): 98 % of control and 101 % of control
T/C [9]: 103 % of control and 107 % of control
T/C (endpoint: mean survival time, dose: 200.0 mg/kg/injection, schedule: Q01DX001 (ip), vehicle: saline): 99 % of control
T/C (endpoint: mean survival time, dose: 200.0 mg/kg/injection, schedule: Q01DX009 (ip), vehicle: saline): 106 % of control and 112 % of control
T/C [10]: 100 % of control and 104 % of control
T/C (endpoint: mean survival time, dose: 400.0 mg/kg/injection, schedule: Q01DX001 (ip), vehicle: saline): 92 % of control
T/C (endpoint: mean survival time, dose: 400.0 mg/kg/injection, schedule: Q01DX009 (ip), vehicle: saline): 96 % of control
T/C [11]: 93 % of control and 109 % of control

Nc1nc(N)c2c(n1)Nc1ccc(Cl)nc1S2
T/C (endpoint: mean survival time, dose: 75.0 mg/kg/injection, schedule: Q01DX009 (ip), vehicle: Klucel (hydroxypropylcellulose) (HPC)): 93 % of control
T/C (endpoint: mean survival time, dose: 150.0 mg/kg/injection, schedule: Q01DX009 (ip), vehicle: Klucel (hydroxypropylcellulose) (HPC)): 95 % of control

COc1cc(C(=O)N2CCCCCCC2)cc(OC)c1OC
T/C [12]: 98 % of control
T/C [13]: 102 % of control

Cc1cc(C)nc(NS(=O)(=O)c2ccc(N=Nc3nc4[nH]c(N)nc(=S)c4[nH]3)cc2)n1
T/C (endpoint: mean survival time, dose: 6.25 mg/kg/injection, schedule: Q01DX009 (ip), vehicle: Klucel (hydroxypropylcellulose) (HPC)): 151 % of control and 177 % of control
T/C (endpoint: mean survival time, dose: 12.5 mg/kg/injection, schedule: Q01DX009 (ip), vehicle: Klucel (hydroxypropylcellulose) (HPC)): 153 % of control
T/C (endpoint: mean survival time, dose: 25.0 mg/kg/injection, schedule: Q01DX009 (ip), vehicle: Klucel (hydroxypropylcellulose) (HPC)): 112 % of control
T/C (endpoint: mean survival time, dose: 200.0 mg/kg/injection, schedule: Q01DX009 (ip), vehicle: Klucel (hydroxypropylcellulose) (HPC)): 102 % of control

Cc1cc2nc(Cc3ccccc3)[nH]c2cc1C
T/C [14]: 90 % of control

O=C1Nc2ccccc2/C1=C/C(=O)c1c[nH]c2ccccc12
T/C [14]: 101 % of control
T/C [4]: 101 % of control
T/C [5]: 96 % of control

COc1ccc(OC)c(/C=C/c2cccn[n+]2C)c1
T/C [14]: 101 % of control
T/C [4]: 114 % of control

COc1ccc(OC)c(NC(=O)Nc2ccc([As](=O)(O)O)cc2)c1
T/C (endpoint: mean survival time, dose: 50.0 mg/kg/injection, schedule: Q04DX003 (ip), vehicle: Klucel (hydroxypropylcellulose) (HPC)): 96 % of control
T/C [12]: 100 % of control
T/C [13]: 93 % of control and 88 % of control

CC(C)(CC(=O)O)NC(=O)CN
T/C [9]: 94 % of control
T/C [10]: 91 % of control
T/C [11]: 97 % of control

CC(=O)Nc1nc(Cl)c2ncn(C3OC(COCc4ccccc4)C(OCc4ccccc4)C3OCc3ccccc3)c2n1 (centres undefined)
T/C [12]: 103 % of control
T/C [13]: 103 % of control
T/C (endpoint: mean survival time, dose: 400.0 mg/kg/injection, schedule: Q04DX003 (ip), vehicle: Klucel (hydroxypropylcellulose) (HPC)): 104 % of control

Clc1ccc(NC2=NCCO2)cc1Cl
T/C (endpoint: mean survival time, dose: 44.0 mg/kg/injection, schedule: Q04DX003 (ip), vehicle: saline with Tween-80): 101 % of control
T/C (endpoint: mean survival time, dose: 66.0 mg/kg/injection, schedule: Q04DX003 (ip), vehicle: saline with Tween-80): 103 % of control
T/C (endpoint: mean survival time, dose: 150.0 mg/kg/injection, schedule: Q04DX003 (ip), vehicle: saline with Tween-80): 93 % of control
T/C [6]: 92 % of control
T/C [7]: 94 % of control

Cc1ccc(S(=O)(=O)N(C)c2ccc(C(=O)O)cc2F)cc1
T/C [8]: 105 % of control
T/C (endpoint: mean survival time, dose: 75.0 mg/kg/injection, schedule: Q04DX003 (ip), vehicle: saline): 100 % of control
T/C (endpoint: mean survival time, dose: 150.0 mg/kg/injection, schedule: Q01DX001 (ip), vehicle: saline): 90 % of control
T/C (endpoint: mean survival time, dose: 150.0 mg/kg/injection, schedule: Q04DX003 (ip), vehicle: saline): 97 % of control
T/C (endpoint: mean survival time, dose: 300.0 mg/kg/injection, schedule: Q01DX001 (ip), vehicle: saline): 98 % of control
T/C (endpoint: mean survival time, dose: 300.0 mg/kg/injection, schedule: Q04DX003 (ip), vehicle: saline): 97 % of control

Nc1nc(N)c2cc(S(=O)(=O)c3ccccc3)ccc2n1
T/C (endpoint: median survival time, dose: 25.0 mg/kg/injection, schedule: Q01DX009 (ip), vehicle: saline with Tween-80): 110 % of control
T/C (endpoint: median survival time, dose: 400.0 mg/kg/injection, schedule: Q01DX009 (ip), vehicle: saline with Tween-80): 108 % of control
T/C (endpoint: median survival time, dose: 800.0 mg/kg/injection, schedule: Q01DX009 (ip), vehicle: saline with Tween-80): 117 % of control
